In patent publication US20210369677A1, “SMALL MOLECULE ACTIVATORS OF POLYCYSTIN-2 (PKD2) AND USES THEREOF” (Northwestern University, priority 2020, published 2021):
Entries after “also recorded” stand apart in the source; their conditions may differ. One block for each compound: values may come before it.

Tests used:
[1] = target: T1, human polycystin-2 CTD EF hand (I704-P797) (Homo sapiens, UniProt Q13563); assay: Isothermal titration calorimetry of divalent ions into the CTD of polycystin-2; format: binding
T1 construct: The C-terminal fragment of the human polycystin-2 (I704-P797) was cloned into the PET19b vector; 10xHis (N); made in house; host or cells: E. coli BL21 (DE3)
T1 sequence (Q13563 704-797): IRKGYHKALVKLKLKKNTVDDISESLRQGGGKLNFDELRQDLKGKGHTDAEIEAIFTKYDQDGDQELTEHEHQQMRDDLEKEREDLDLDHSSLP
Experimental: CTD protein expression, purification, and isothermal titration calorimetry. The C-terminal fragment of the human polycystin-2 (I704-P797) was cloned into the PET19b vector and transformed into BL21 (DE3) competent cells (New England Biolabs) for bacterial expression. The translated peptide has a 10×His tag on its N-terminus. The alanine mutants of the individual calcium-coordinating residues were created and transformed as well. Cells were grown in 2XYT broth in a 37° C. shaking incubator until OD600 reaches ˜0.6, and were induced by 0.4 mM isopropyl 1-thio-β-D-galactopyranoside and grown for another 4 hours. Cells were harvested and resuspended in Buffer A (500 mM NaCl, 20 mM Tris/HCl, pH 7.4), 5% glycerol, 0.25 mM EDTA pH 8.0, 1 mM PMSF (RPI), 25 μg/ml of lysozyme and DNase I (GoldBio). The suspension was then lysed by sonication and clarified by centrifugation (30,000×g for 0.5 h). Filtered supernatant was loaded into a HisPur cobalt Superflow agarose column (ThermoScientific). The column was washed with 10 column volume (CV) of buffer A, 5 CV of buffer A+5 mM imidazole, and finally eluted with 3 CV of buffer A+100 mM imidazole. The eluate was desalted by dialysis in 150 mM NaCl, 20 mM Tris/HCl, 20 mM imidazole, pH 7.4. SDS-PAGE gel confirmed the expression, solubility, and purity of the peptide. All of our solutions were formulated with ultrapure water (Milli-Q® IQ 7005 water purification system), that has less than 0.29 ng/L calcium ions present. The binding affinity is recorded based on the heat difference between the sample cell and reference cell measured by MicroCal iTC200. […] The cells were insulated by an adiabatic jacket held at 25° C. The heat of dilution of Ca^2+ was not subtracted from data sets, as the signal was prohibitively small for several of the mutant channels. The exothermic energy of the bimolecular interaction between Ca^2+ and peptide during each injection was analyzed by integrating the change in heat to generate the binding isotherm. […]

[2] = target: T2, PKD2 (Homo sapiens, UniProt Q13563); assay: PKD2 conductance assay; format: cell-based
T2 sequence (Q13563 1-968): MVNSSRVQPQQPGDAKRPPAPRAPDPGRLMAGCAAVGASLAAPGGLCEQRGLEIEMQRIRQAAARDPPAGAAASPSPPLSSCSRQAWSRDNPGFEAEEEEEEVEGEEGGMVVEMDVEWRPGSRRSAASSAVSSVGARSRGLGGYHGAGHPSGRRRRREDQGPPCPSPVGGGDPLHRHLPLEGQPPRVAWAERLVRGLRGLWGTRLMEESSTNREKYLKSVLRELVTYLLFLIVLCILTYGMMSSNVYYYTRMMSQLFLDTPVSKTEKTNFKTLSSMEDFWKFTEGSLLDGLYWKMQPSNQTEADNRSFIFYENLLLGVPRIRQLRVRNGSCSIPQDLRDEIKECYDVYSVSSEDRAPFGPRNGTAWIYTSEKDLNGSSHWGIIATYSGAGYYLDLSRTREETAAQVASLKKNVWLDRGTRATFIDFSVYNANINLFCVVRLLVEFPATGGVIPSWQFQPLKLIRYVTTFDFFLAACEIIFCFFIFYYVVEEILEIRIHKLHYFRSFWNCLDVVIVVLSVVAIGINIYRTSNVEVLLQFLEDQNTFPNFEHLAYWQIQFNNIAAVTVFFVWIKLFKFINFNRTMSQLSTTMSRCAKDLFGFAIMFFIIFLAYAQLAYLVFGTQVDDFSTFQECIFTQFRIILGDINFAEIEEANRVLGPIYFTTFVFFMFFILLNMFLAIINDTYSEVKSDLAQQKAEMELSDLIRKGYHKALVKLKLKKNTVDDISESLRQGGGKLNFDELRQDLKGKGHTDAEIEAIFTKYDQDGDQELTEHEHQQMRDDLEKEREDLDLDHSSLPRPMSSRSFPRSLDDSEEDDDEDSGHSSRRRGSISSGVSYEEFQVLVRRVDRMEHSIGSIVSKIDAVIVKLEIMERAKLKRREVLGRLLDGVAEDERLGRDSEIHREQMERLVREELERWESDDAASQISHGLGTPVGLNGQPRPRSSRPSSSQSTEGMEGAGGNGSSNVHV
Excerpt: FIG. 35. Conductance of PKD2 in the presence of test compounds CAS Number 57265-65-3 (calmidazolium (CMZ)), CAS Number 617-27-0 (W-13), and CAS Number 448895-37-2 (NS1643)
We also tested the additional compound CAS Number 57265-65-3 (calmidazolium (CMZ)), the compound CAS Number 617-27-0 (W-13), and NS1643 in a PKD2 conductance assay.

[3] = target: T2, PKD2; assay: Cilia Ca2+ fluorescence (smo-GCaMP3), Stage 2; format: cell-based; design: cilia Ca^2+ responses from cells with PKD2 present and knocked out using CRISPR=Cas9; endogenous in cells; host or cells: human kidney collecting duct cells expressing the smo-GCaMP3 cilia reporter; details: smo-GCaMP3, human kidney collecting duct cells; read-out: EC50, increased ciliary Ca2+ fluorescence
Excerpt: (§1) FIG. 31. […] Top, the screening of each stage. […] Bottom, cilia Ca^2+ responses from cells with PKD2 present and knocked out using CRISPR=Cas9 (N=17 cells each). D, E) Stage 3 (Cilia Electrophysiology): image of a patched cilia from collecting ducts and corresponding PKD2-dependent current activated by NS1643.
(§2) Our screening strategy included three stages. (See FIG. 31). In Stage 1 of our screening assay, we utilized cyst cells in a P. pastoris (strain YS634) PKD2 Ca^2+-dependent yeast growth assay. P. pastoris growth is dependent on induction and stimulation of PKD2 ion transport by test compounds including NS1643, calmidazolium, and W-13. In Stage 2, we measured PKD2 activation by the test compounds using increased ciliary Ca2+ fluorescence and membrane potential from human kidney collecting duct cells in which PKD2 had been knocked out by CRISPR-Cas9. In Stage 3, we assessed activation of polystin-2 dependent currents by the test compounds via imaging of patched cilia from collecting ducts and measuring change in current versus voltage. […] (See FIG. 32).

[4] = target: T2, PKD2; assay: Three stage testing strategy for PKD2 activators; format: cell-based; details: three screening stages
Excerpt: as §1
The polycystin pharmacophore remains outstanding because these channels localize to the primary cilium—an antenna-like organelle that requires innovative tools to study. To address this knowledge gap, our laboratory has established a series of cilia-specific channel activity reporters (voltage and calcium reporters) and model systems (poly cystin-dependent yeast growth) which will be used in a three-stage drug screen to characterize the pharmacology of polycystins. We screened a commercially available chemical library containing 384 compounds for activity against wild type polycystins, and identified three channel activators. […]
Our screening strategy included three stages. […] In Stage 2, we measured PKD2 activation by the test compounds using increased ciliary Ca2+ fluorescence and membrane potential from human kidney collecting duct cells in which PKD2 had been knocked out by CRISPR-Cas9. In Stage 3, we assessed activation of polystin-2 dependent currents by the test compounds via imaging of patched cilia from collecting ducts and measuring change in current versus voltage. […]

[5] = target: T2, PKD2; assay: P. pastoris PKD2 Ca2+-dependent yeast growth assay (Stage 1); format: cell-based; details: P. pastoris strain Y5634; read-out: EC50, yeast growth dependent on stimulation of PKD2 cation transport
Excerpt: as §1, §2

[6] = target: T2, PKD2; assay: Cilia electrophysiology of patched cilia from collecting ducts (Stage 3); format: cell-based
Excerpt: as §1, §2

[7] = system: polycystin-2L1; format: cell-based; details: 10 μM, plasma membrane of HEK cells
Experimental: (§3) Electrophysiology. Ciliary ion currents were recorded using borosilicate glass electrodes polished to resistances of 14-22 MΩ using the cilium patch method previously described^32. Whole cell electrodes used to measure poly cystin-2L1 currents were fire polished to 1.5-4 MΩ resistances. Unless otherwise stated, whole cilia ionic currents were recorded in symmetrical [Na^+]. The pipette standard internal solution contained (in mM): 90 NaMES, 10 NaCl, 10 HEPES, 10 Na4-BAPTA (Glycine, N, N′-[1,2-ethanediylbis(oxy-2,1-phenylene)]bis[N-(carboxymethyl)]-,tetrasodium); pH was adjusted to 7.3 using NaOH. Standard bath solution contained 140 NaCl, 10 HEPES, 1.8 CaCl2); pH 7.4. All solutions were osmotically balanced to 295 (±6) mOsm with mannitol. Extracellular solutions containing TCEP and GSH were used within six hours of formulation. Data were collected using an Axopatch 200B patch clamp amplifier, Digidata 1440A, and pClamp 10 software. Whole-cilium and excised patch currents were digitized at 25 kHz and low-pass filtered at 10 kHz. In the whole cilium configuration, the holding potential was −60 mV and then depolarized using a 400 ms voltage ramp from −100 mV to 100 mV. The whole cell recordings of polycystin-2L1 currents were either activated by the same ramp protocol or by 100 ms depolarizations to 100 mV from a −100 mV holding potential. External conditions were controlled using a Warner Perfusion Fast-Step (SF-77B) system in which the patched cilia and electrode were held in the perfusate stream. Data were analyzed by Igor Pro 7.00 (Wavemetrics, Lake Oswego, Oreg.). The polycystin-2 open probability and the polycystin-2L1 tail current-voltage relationships were fit to a Boltzmann function, f(x)=1/(1+exp[V−V1/2]/k) to estimate voltage of half-maximal activation of current (V1/2).

[8] = target: T3, polycystin-2 (Homo sapiens, UniProt Q13563); format: cell-based; details: 10 μM, voltage ramps
T3 construct: expressed in transfected cells
T3 sequence (Q13563 1-968): T2 sequence (Q13563 1-968)
Excerpt: Generation of HEK PKD2^Null cells line and the stable expression PKD2 variants. To generate the HEK PKD2^Null cell lines, we used a CRISPR/Cas9 gene editing kit available from Addgene (kit 1000000055). HEK 293 cells were electro-transfected with sgRNAs (caccg[…] and aaac[…]c) with the All-in-one Cas9 plasmid. […] Cells generated from single cell clones were selected after 4 weeks of expansion in a 96-wells plate. […] To generate the WT and variant PKD2 GFP or mCherry C-terminally tagged variant cell lines, the hPKD gene was subcloned into lentiviral pLVX-mcherry-N1 (Clontech) or pLVX-GFP-N1 (Clontech) vector using the Gibson assembly method. A linker encoding for six glycine residues was added between the PKD2 gene and the C-terminal tags, and missense variants were generated using standard, site-directed mutagenesis. The third-generation lentiviral packaging plasmids used for stable expression contained: pMDLg/pRRE (Addgene), […] pRSV-Rev (Addgene), and envelope expressing plasmid pMD2.G (Addgene). LentiX-293T cells (Takara) were transfected with polyethylineimine (Polysciences) at a 4:1:1:1 ratio of the transgene and viral packaging constructs. Supernatants were collected 48 and 72 hours post transfection and filtered through a 0.45 μm syringe filter. Lentiviral supernatant was concentrated 100 times using 1 volume of PEG-it (System Biosciences) virus precipitation solution and 4 volume of lentivirus-containing supernatant. The PEG-it and supernatant mixture were kept at 4 degrees for 24 hours and centrifuged at 1500 rpm for 30 minutes. The pellet containing lentivirus was resuspended with 1/100th volume of PBS of the original supernatant volume. HEK cells were infected with the lentivirus supernatant; PKD2-GFP or PKD2-mCherry expression was selected using culture media containing puromycin (2 μg/ml) for 30 to 90 days. Cells were then fluorescence-activated cell sorted (BD FacsMelody) at 5000 to 10,000 counts per minute to enrich for the transgene expression. Stable cell lines were cultured in Dulbecco's modified essential medium (DMEM) supplemented with 10% fetal bovine serum (FBS) and 100 units/ml penicillin, 100 units/ml streptomycin and 1 μg/ml puromycin selection antibiotic.
as §3, with “potential.” for “potential. External conditions were controlled using a Warner Perfusion Fast-Step (SF-77B) system in which the patched cilia and electrode were held in the perfusate stream. Data were analyzed by Igor Pro 7.00 (Wavemetrics, Lake Oswego, Oreg.). The polycystin-2 open probability and the polycystin-2L1 tail current-voltage relationships were fit to a Boltzmann function, f(x)=1/(1+exp[V−V1/2]/k) to estimate voltage of half-maximal activation of current (V1/2).”

Compound: O=C(Nc1cc(C(F)(F)F)ccc1O)Nc1cc(C(F)(F)F)ccc1O [NS1643, 1,3-bis[2-hydroxy-5-(trifluoromethyl)phenyl]urea]
PKD2 conductance [2]: increased PKD2 conductance
EC50 [3]: 2.3 µM
Identification as PKD2 activator [4]: identified as an activator of PKD2 activity; also recorded: exemplary PKD2 activator
EC50 [5]: 1.1 µM
PKD2-dependent current [6]: activated

Compound: NCCCCCCNS(=O)(=O)c1cccc2c(Cl)cccc12 [W-13, N-(6-Aminohexyl)-5-chloro-1-naphthalenesulfonamide]
PKD2 conductance [2]: increased PKD2 conductance

Compound: [La] [lanthanum]
Block of polycystin-2L1 currents by trivalent ions [7]: blocked
Block of ciliary WT polycystin-2 currents by trivalent ions [8]: blocked

Continued, values first:

Affinity of other divalent ions for polycystin-2 EF hand [1]: did not have affinity
Compound: [Mg+2] [Mg^2+]

Affinity of other divalent ions for polycystin-2 EF hand [1]: did not have affinity
Compound: [Zn+2] [Zn^2+]
